Laboratory results taken from patent US20210361706A1 (priority 2018, published 2021).
Where two headings read alike, the source gives them in different places.

Key:
EO771 tumor [1] = format: in vivo, C57BL/6JNarl female mice; settings: for survival rate: twice CTX, FIG. 1B
Protocol: The syngeneic orthotopic EO771 breast cancer mouse model (see Johnstone et al., Disease models & mechanisms, 8(3):237-251 (2015)) was used to evaluate the in vivo treatment efficacy.
C57BL/6JNarl female mice were purchased from National Laboratory Animal Center, Taiwan and housed under specific pathogenic-free condition in the animal facility of Institute of Molecular Biology, Academia Sinica, Taiwan. Mice were used between 8-to-12-week-old.
EO771 cell line (CH3 BioSystems) were cultured in complete medium (RPMI 1640 (Gibco) supplemented with 20 mM pH7.2 HEPES (Sigma-Aldrich), 10% fetal bovine serum (FBS; HyClone) and 1% Penicillin and Streptomycin (PS; Gibco)). B16-F10 melanoma was provided by Dr. Roffler, Steve R. (Institute of Biomedical Sciences, Academia Sinica, Taiwan) and cultured in complete medium (DMEM (Gibco) supplemented with 10% FBS (HyClone) and 1% PS (Gibco)). Tumor cells were cultured at 37° C. incubator with 5% CO2.
Bone marrow (BM) cells were obtained from Tibias and femurs. Red blood cells were lysed by ACK lysis buffer (0.15 M NH4Cl, 10 mM NaHCO3, 1 mM disodium EDTA (pH 7.4)). The BM cells were cultured in 10% FBS RPMI medium containing rmIL-15 for 7 days, and IL-12 was added 16 hours before harvesting. The harvested BM cells were stained with antibodies specific for CD19, H57, NK1.1, CD11 c and B220, and sorted for CD11c^+B220^+ NK cells using FACSAriaII SORP (BD Biosciences; FACS Core, Institute of Molecular Biology, Academia Sinica, Taiwan).
CTX was administrated on day-21 post tumor inoculation. The twice CTX-treatment group received the second CTX injection 6 days after the first treatment. Phosphate-buffered saline (PBS) was used as a negative control.
First, the effects of CTX monotherapy, NK monotherapy, or CTX and NK cell combined therapy on EO771 tumor-bearing mice were examined, following the assays described in Example 1 above. The treatment started on day-21 post tumor inoculation. […] FIG. 2. […] FIG. 2.

EO771 tumor [2] = format: in vivo, C57BL/6JNarl female mice
From the text: Next, the effect of CTX monotherapy and CTX/NK cell combined therapy were examined in an EO771 tumor resection mouse model, which mimics patients whose tumor was surgically removed.
Tumor and draining lymph node were resected on day-21 post tumor inoculation, and CTX alone or in combination with NK cells were started two days after the resection. […] FIG. 4. […] FIG. 4. […] FIG. 4. […]

EO771 cells [3] = format: in vivo, C57BL/6JNarl female mice; settings: tumor-resected mice
From the text: Following the assays described in Example 1 above, it was examined in this Example whether CTX monotherapy and CTX/NK cell combined therapy would induce protective immune memory under tumor-resected condition. Mice survived after the treatment of primary EO771 tumor were re-challenged with EO771 cells. […] FIG. 5. […] FIG. 5.

EO771 cells [4] = test: EO771 re-challenge of tumor-bearing mice that survived the primary tumor after treatment
Protocol: The orthotopic syngeneic TMBC model was done by injection of EO771 cells into the 4th mammary fat pad of C57BL/6JNarl female mice. For the tumor-bearing model, each mouse was inoculated with 0.5×10^6 cells and received the first intra-peritoneal injection of CTX after 21 days. The second CTX injection was given 6 days later. Sorted CD11c^+B220^+ NK cells were transferred intravenously around 24 hours after the second CTX treatment, and followed with another NK cell transfer 3-4 days later. For the tumor-resect model, each mouse was inoculated with 0.3×10^6 EO771 cells, and the tumor and draining lymph node were resected 21 days later. CTX/NK treatment started at 48 hours after resection as described in the tumor-bearing model. […] The mice were monitored for survival, body weight, and tumor volume.
Kaplan-Meier survival analyses were performed using GraphPad Prism 7, and the Log-rank test was used to determine significance. Cox proportional hazard model was used to analyze hazard ratio and interaction [24]. P-value≤0.05 was considered statistically significant (*p≤0.05, **p≤0.01, ***p≤0.001, ****p≤0.0001).
To determine whether CTX/NK cell combined therapy would prevent or reduce the risk of tumor recurrence, mice who survived the primary tumor after the treatment were re-challenged with the same tumor cells to mimic cancer recurrence.
The cure rate was estimated by multiplying the primary and re-challenge survival rates.

[5] = tumor-bearing model, reference: no treatment
[6] = tumor-resection model, reference: no treatment (resection only)
[7] = primary survival rate × survival rate after EO771 re-challenge

O=P1(N(CCCl)CCCl)NCCCO1 (stereo not shown) [CTX, cyclophosphamide]
mice survived for at least 120 days (EO771 tumor [1]; CTX once, 150 mg/kg per injection, day-21 post tumor inoculation, FIG. 1A): 1 out of 8
mice survived for at least 120 days (EO771 tumor [1]; CTX twice, 6 days apart, 150 mg/kg per injection, from day 21, FIG. 1A): 5 out of 8
mice survived for at least 120 days (EO771 tumor [1]; treatment started on day-21 post tumor inoculation, FIG. 2): 62%
Primary survival rate % (live/total) (EO771 tumor [1]; tumor-bearing mice, survival post treatment in mice inoculated with tumor the first time): 62 (46/74) %
HR (95% CI), Frailty adjustment (EO771 tumor [1]; [5]): 0.02 (0.009, 0.044)
HR (95% CI), cluster adjustment (EO771 tumor [1]; [5]): 0.024 (0.009, 0.066)
HR (95% CI), without batch adjustment (EO771 tumor [1]; [5]): 0.024 (0.012, 0.051)
survival rate (EO771 tumor [1]; 6 days apart, 125 mg/kg per injection): 11%
survival rate (EO771 tumor [1]; 6 days apart, 150 mg/kg per injection): 62%
survival rate (EO771 tumor [2]; tumor resected mice, treatment started two days after resection, FIG. 4): 86%
Primary survival rate % (live/total) (EO771 tumor [2]; tumor-resected mice, survival post treatment in mice inoculated with tumor the first time): 86 (49/57) %
HR (95% CI), Frailty adjustment (EO771 tumor [2]; [6]): 0.083 (0.036, 0.192)
HR (95% CI), cluster adjustment (EO771 tumor [2]; [6]): 0.086 (0.037, 0.201)
HR (95% CI), without batch adjustment (EO771 tumor [2]; [6]): 0.086 (0.040, 0.186)
Tumor-free rate after EO771 re-challenge % (live/total) (EO771 cells [3]): 30 (7/23) %
estimated cure rate (EO771 cells [3]; EO771 primary and re-challenge survival rates): 26%
survival after EO771 re-challenge (EO771 cells [3]; FIG. 5): 30%
Estimated cure rate with immune protection (%) (EO771 cells [3]; [7]): 26%
Survival rate after EO771 re-challenge % (live/total) (EO771 cells [4]): 90 (26/29) %
survived at least 120 days after the EO771 re-challenge (EO771 cells [4]; FIG. 3): 90%
Estimated cure rate with immune protection (%) (EO771 cells [4]; [7]): 56%
estimated cure rate (EO771 cells [4]; primary × re-challenge survival rates): 56%
